The test system of this test is bacterial protein synthesis (S30 extract from quinolone-succeptable Streptococcus pneumoniae ATCC 46919). Nature of the test: Cell-free translation assay, firefly luciferase reporter, S30 Streptococcus pneumoniae extract. The test is classed as biochemical. The conditions noted are these: luciferase mRNA, read-out: IC50, concentration causing 50% inhibition of bacterial protein synthesis. The protocol:
Bacterial protein synthesis inhibitory activity of representative compounds of this invention having formula (I) and the commercially-available antibacterials in TABLE 2 was determined by translation assays using the firefly luciferase reporter system described by Murray et al., (2001), “Staphylococcus aureus Cell Extract Transcription-Translation Assay: Firefly Luciferase Reporter System for Evaluating Protein Translation Inhibitors,” Antimicrob. Agents Chemother. 45(6): 1900-1904, but replacing the Staphylococcus aureus S30 extract described therein with S30 Streptococcus pneumoniae extract from quinolone-succeptable Streptococcus pneumoniae ATCC 46919, and replacing plasmid coding for the luciferase gene with mRNA (encoding produced by in vitro transcription from the plasmid pAS10rbs3) which encoded the luciferase gene with an upstream Streptococcus pneumoniae promoter and Shine-Dalgarno site.
(In general: A reporter such as luciferase makes a cellular process visible.)

One compound from patent publication US7632946B2, “Naphthyridine-based antibacterial compositions” (Abbott Laboratories, priority 2004, dated 2009) can be followed below.

Consider `CC(=O)NC[C@H]1CN(c2ccc(N3CCOCC3)c(F)c2)C(=O)O1` [Linezolid], for which the IC50 is roughly 3 µM.
